Experimental data reported in patent US20150105349A1, “(R)-(-)-1,2-propanediol compositions and methods” (priority 2013, published 2015).

Tests used:
philtrum skin = philtrum skin cooling bioassay (subjective coolness rating 0-3); format: in vivo, human; conditions: 49% distilled water, 1% ethanol
Text: The term “alcoholic solvent” refers to a chemical with one to four carbons with at least one hydroxyl group attached to a carbon atom. A reliable place for topical application is the skin above the upper lip (above the vermilion border of the lips), on the philtrum, lateral to the philtrum until the nasolabial folds, and on the lower nostrils (subnasale). This part of the face is known to be densely innervated with cold receptors, second only to the surfaces of the eyeball and anogenitalia. Tingling, cool and cold sensations from the skin may be experienced and rated for time of onset and intensity.
The intervals for recording sensations are 5 to 10 minutes, until two successive zeros are obtained. The results (shown in the Figures) are averaged values of 4 to 6 separate trials in the same individual. The data are plotted using SigmaPlot (Systat Software, Point Richmond, Calif.) and a smoothing function with a negative exponential was used for analysis and statistical fit of the results. The onset of drug action is taken as the time to reach 2 units of coolness intensity, and offset of drug action is the time when coolness intensity drops below 2, after previously surpassing 2 units. […] The duration of cooling action is defined as the offset time minus the onset time and the primary index of effect. As described in Examples, the test compounds were tested at 2 to 10 mg/mL of vehicle.
For assays on the skin, the cooling agent(s) was dissolved in the alcoholic solvent to yield a 2, 2.5, 3, 5 or 10 mg/mL solution. Using a cotton-tipped applicator (e.g. Q-tips®) 0.10 to 0.25 mL of the test solution was applied to the skin above the upper lip, on the philtrum, and lateral to the philtrum up to the nasolabial folds, and the onset and duration of cooling sensations noted. […] The interval for recording sensations was at 5 to 10 minute intervals, until at least two successive zeros were obtained. The results were averaged values of 3 to 6 separate trials in the same individual. The “onset” is the time taken to reach a coolness intensity value of 2. […] The “off-set” is when the coolness intensity drops below 2, and the duration is the time of off-set minus the time of onset. The area under the curve (AUC) gives an estimate of the intensity and duration of drug action and can be obtained from the plotted data using SigmaPlot (Systat Software, Point Richmond, Calif.). The AUC unit is the product of cooling intensity x min.

[1] = target: T1, cloned hTRPM8 channel (human TRPM8 gene, expressed in CHO cells) (Homo sapiens, UniProt Q7Z2W7); experiment: agonist activity on cloned hTRPM8 channel, Fluo-8 calcium kit, FLIPR; format: cell-based; conditions: for Potency Relative to I-menthol / EC50: TRPM8 receptor assay; for EC50: read-out: EC50 μM (95% C, L.)
T1 construct: host or cells: CHO cells
Procedure: The in vitro effects of test articles were evaluated on cloned hTRPM8 channel (encoded by the human TRPM8 gene, expressed in CHO cells) using a Fluo-8 calcium kit and a Fluorescence Imaging Plate Reader (FLIPR^TETRA™) instrument. […] The total number of carbons in these trialkylphosphine oxides ranged from 12 to 15.
To further examine solvent-receptor interactions, stock solutions of 1-7 [1-(Diisopropyl-phosphinoyl)-heptane] were prepared in dimethyl sulfoxide (DMSO) or DMSO containing 10% or 30% by volume of the three isomers of 1,2-propanediol, (R/S-PD, R-PD, and S-PD) and stored frozen. Six dose levels were tested ranging from 0.003 to 3 μM. Ten μl of the test article solution were added to 40 μl of cells in HBPS in glass-lined 384-well compound plates, and placed into the FLIPR instrument for the fluorescence readout (Molecular Devices Corporation, Union City, Calif.).

[2] = tested on: itchy scalp, seborrheic dermatitis; experiment: topical application to itchy scalp in seborrheic dermatitis, one subject; format: in vivo, human; conditions: 10 mg/mL in 12% (S)-1,2-propanediol, 37% (R)-1,2-propanediol, 1% ethanol, 50% water
Procedure: A subject with severe seborrheic dermatitis complained of an itchy scalp which was not resolved with anti-dandruff shampoos. […] The delivery was made using a 20 mL reservoir bottle capped with a Yorker spout. They remarked that routine application of the solution on an “as needed basis” stopped the itch for 6 to 8 hours and repeat applications for one week allowed their scalp to feel refreshed and normal. They proposed to pay for a continued supply of the solution.

[3] = tested on: periorbital skin and skin above the cheekbone; experiment: cosmetic wipe over periorbital skin and skin above the cheekbone, six female subjects; format: in vivo, human; conditions: 10 mg/mL in water (50%), 10% (S)-, 40% (R)-1,2-propanediol
Procedure: Six female subjects working at a cosmetics company volunteered to try topical applications of 1-7 and/or 1-8, formulated at 10 mg/mL in water (50%) and 10% (S)-1,2-propanediol, 40% (R)-1,2-propanediol wt/wt. The liquid was put on a cotton square and wiped over the periorbital skin and the skin above the cheekbone. All the subjects remarked on a refreshing coolness on the skin at the sites of application within 2 min after application. There was a “wow” effect, that was considered pleasant and stimulating. […] Four of the six subjects said they felt more “awake and energetic.”

[4] = tested on: axillary skin lesion of plaque psoriasis (itch, burning); experiment: topical application to axillary plaque psoriasis lesion, one subject; format: in vivo, human; conditions: 2% in 1% ethanol-99% (R)-1,2-propanediol, swab stick, first application at night
Text: A person with an 8-year history of plaque psoriasis complained of an axillary skin lesion that itched, had burning sensations, and kept them awake at night. Their condition was severe and chronic. Their parent complained that they had to vacuum their bedroom every day in order to remove flaking skin debris. […] They volunteered to try CPS-148, 2% dissolved in 1% ethanol-99% (R)-1,2-propanediol, and was given instructions on how to apply the solution to their site of itch with a swab stick (Q-tip™). They claimed after the first time of application at night the burning sensations and itch disappeared within 5 to 10 min and they were able to have a good nights sleep. They continued to use the solution on an “as-needed basis” for one month and claimed that they slept much better than before.

T1 sequence (Q7Z2W7 whole entry): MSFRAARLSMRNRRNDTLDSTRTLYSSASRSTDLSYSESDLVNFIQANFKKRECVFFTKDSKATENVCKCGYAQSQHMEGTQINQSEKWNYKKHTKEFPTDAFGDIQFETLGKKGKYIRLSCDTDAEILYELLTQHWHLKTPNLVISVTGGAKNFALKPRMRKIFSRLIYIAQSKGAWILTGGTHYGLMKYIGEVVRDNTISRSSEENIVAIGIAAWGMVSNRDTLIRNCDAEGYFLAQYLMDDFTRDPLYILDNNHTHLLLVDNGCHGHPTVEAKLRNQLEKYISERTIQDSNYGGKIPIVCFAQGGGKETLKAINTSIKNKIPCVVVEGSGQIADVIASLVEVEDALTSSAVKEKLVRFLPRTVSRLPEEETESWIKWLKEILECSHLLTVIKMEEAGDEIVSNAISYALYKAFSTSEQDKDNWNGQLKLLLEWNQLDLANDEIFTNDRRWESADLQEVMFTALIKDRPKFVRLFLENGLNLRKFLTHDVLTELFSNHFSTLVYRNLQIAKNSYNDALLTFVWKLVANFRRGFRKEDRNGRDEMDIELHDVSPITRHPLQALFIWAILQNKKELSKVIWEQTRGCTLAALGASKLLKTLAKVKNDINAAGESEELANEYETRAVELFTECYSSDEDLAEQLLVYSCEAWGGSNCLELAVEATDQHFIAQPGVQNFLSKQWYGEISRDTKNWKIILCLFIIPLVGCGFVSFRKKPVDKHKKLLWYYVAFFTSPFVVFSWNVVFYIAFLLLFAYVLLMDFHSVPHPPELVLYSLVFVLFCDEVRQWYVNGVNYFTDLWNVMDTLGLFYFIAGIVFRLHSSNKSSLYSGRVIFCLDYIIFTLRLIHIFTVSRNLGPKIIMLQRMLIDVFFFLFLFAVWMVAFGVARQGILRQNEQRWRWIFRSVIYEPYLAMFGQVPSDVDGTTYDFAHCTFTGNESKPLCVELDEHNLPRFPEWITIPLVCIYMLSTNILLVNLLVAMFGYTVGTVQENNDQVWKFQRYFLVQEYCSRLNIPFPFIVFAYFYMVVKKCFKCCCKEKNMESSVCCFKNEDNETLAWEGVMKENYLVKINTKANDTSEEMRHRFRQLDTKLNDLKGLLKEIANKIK

| SMILES | Ratio of AUC 75/25% R/S to 25/75% R/S (fold increase in cooling activity) (philtrum skin) | Potency Relative to I-menthol [1] | EC50 [1] | duration for which itch was stopped [2] | irritation or redness on the skin after applications [3] | time facial skin felt cool and dry after application ([3]; all subjects) | agonism at the TRPM8 ion channel [1] | time to disappearance of burning sensations and itch [4] |
| --- | --- | --- | --- | --- | --- | --- | --- | --- |
| CCCCCCCCP(=O)(C(C)C)C(C)C [1-8] | 1.5 | 5.4 | 0.7 µM | 6 to 8 h | no irritation or redness | at least one hour | – | – |
| CCCCCCCP(=O)(C(C)CC)C(C)CC (centres unmarked) [CPS-148, 1-(Di-sec-butyl-phosphinoyl)-heptane] | 2.3 | 3.4 | 1.1 µM | – | – | – | activates TRPM8 | 5 to 10 min |
